Test results as given in patent US4743584A, “C-terminal amide cyclic renin inhibitors containing peptide isosteres” (Merck & Co., Inc., priority 1986, dated 1988).
Positions of bridges follow the written chain, without caps; N, C: chain ends. Residues, ends and D or L forms follow the SMILES beside them. *: point of attachment. Boc = CC(C)(C)OC(=O)*

Tests used:
[1] = target: T1, human kidney renin (Homo sapiens, UniProt P00797); experiment: Human renin inhibition; assay type: biochemical; conditions: purified human kidney renin; read-out: KI (dissociation constant of the inhibited enzyme-inhibitor complex)
T1 construct: human kidney renin purified as described in Bangham; from tissue; host or cells: human kidney
T1 sequence (P00797 67-406): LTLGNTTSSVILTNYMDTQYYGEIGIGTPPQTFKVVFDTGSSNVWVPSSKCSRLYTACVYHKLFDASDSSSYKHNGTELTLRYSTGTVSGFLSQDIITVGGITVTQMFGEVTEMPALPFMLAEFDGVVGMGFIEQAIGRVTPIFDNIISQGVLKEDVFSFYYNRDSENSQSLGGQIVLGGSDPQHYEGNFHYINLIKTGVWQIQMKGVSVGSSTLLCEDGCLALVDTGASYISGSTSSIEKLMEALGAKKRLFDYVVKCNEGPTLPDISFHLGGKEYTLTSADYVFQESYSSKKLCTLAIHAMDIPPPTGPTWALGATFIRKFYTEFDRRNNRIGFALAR
Description: An assay was carried out in order to determine the inhibitory potency of the peptides of the present invention. The assay measured the inhibition of human kidney renin purified as described in Bangham, D. R., Robertson, I., Robinson, J. I. S., Robinson, C. J., and Tree, M., Clinical Science and Molecular Medicine, 48 (Supp. 2): 136s-159s (1975), and further purified by affinity chromatography on pepstatin-aminohexyl-Sepharase as described in Poe, M., Wu., J. K., Florance, J. R., Radkey, J. A., Bennett, C. D., and Hoagsteen, K., J. Biol. Chem. (1982, in press). The assay was also in accordance with Poe et al. cited above. Results are expressed as KI values, which refer to the dissociation constant of the inhibited enzyme-inhibitor complex. This KI value was obtained as described above. […]

[2] = system: hog kidney renin; experiment: Hog renin inhibition; assay type: biochemical; conditions: pH 7.3, read-out: I50 (concentration of peptide inhibitor necessary to produce 50% inhibition of renin activity)
Description: An assay was carried out in order to determine the inhibitory potency of the peptides of the present invention. The assay measured the inhibition of hog kidney renin, and was in accordance with the procedure described in Rich et al., J. Med. Chem. 23:27, 1980, except that a pH of 7.3 was used. The results of the assay, illustrated in the table below, are expressed as I50 values, which refers to the concentration of peptide inhibitor necessary to produce 50% inhibition of renin activity. This I50 value is obtained typically by plotting data from four inhibitor concentrations.

[3] = system: nephrectomized rats; conditions: after the injection of hog renin into nephrectomized rats; Gross et al. 1971; cited from earlier work

Ki [1] | Compound | other results
33 µM | CC(C)[C@@H]1NC(=O)[C@H](Cc2ccccc2)NC(=O)[C@H](Cc2ccccc2)NC(=O)[C@@H](NC(=O)[C@H](Cc2ccccc2)NC(=O)[C@@H]2CCCN2C(=O)[C@H](Cc2c[nH]cn2)NC(=O)[C@@H]2CCCN2)CCCCNC(=O)[C@H](Cc2ccccc2)NC1=O (H-PHPFKFFVF; lactam 5-C) | –
– | CC(C)C[C@@H]1NC(=O)[C@@H](NC(=O)[C@H](Cc2ccccc2)NC(=O)[C@@H]2CCCN2C(=O)[C@H](Cc2c[nH]cn2)NC(=O)[C@@H]2CCCN2C(=O)OC(C)(C)C)CCCCNC(=O)[C@H](Cc2ccccc2)NC(=O)[C@H](C(C)C)NC(=O)[C@H](CC(C)C)NC1=O [drawing 67] (Boc-PHPFKLLVF; lactam 5-C) | IC50 [2]: 1 mM
6.4 µM | CC(C)C[C@@H]1NC(=O)[C@@H](NC(=O)[C@H](Cc2ccccc2)NC(=O)[C@@H]2CCCN2C(=O)[C@H](Cc2c[nH]cn2)NC(=O)[C@@H]2CCCN2C(=O)OC(C)(C)C)CCCCNC(=O)[C@H](Cc2ccccc2)NC(=O)[C@H](C(C)C)NC(=O)[C@H](CC(C)C)NC1=O [drawing 69] (Boc-PHPFKLLVF; lactam 5-C) | –
– | Pepstatin | blood pressure in vivo [3]: reduce blood pressure
